# Results: US8710043B2, “TRPM8 antagonists and their use in treatments” (Amgen Inc., priority 2011, dated 2014)
# Molecular target: T1, human TRPM8 (Homo sapiens, UniProt Q7Z2W7)
# T1 construct: expressed in transfected cells; host or cells: Chinese hamster ovary (CHO) cells, T-REx tetracycline-inducible system, co-transfected with aequorin
# Assay: Luminescence readout assay for measuring intracellular calcium, icilin activation
# Type: cell-based
# Details: CHO cells expressing human TRPM8, aequorin luminescence, 1 μM icilin activation; read-out: hTRPM8 IC50
# Method in brief: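 The read-out was luminescence reporting intracellular calcium, recorded by a CCD-based luminometer. Compounds were preincubated for 2.5 min before agonist challenge with 1 μM icilin. Human TRPM8 was expressed in a stable T-REx CHO line, induced with 0.5 μg/mL tetracycline the day before.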
# T1 sequence (Q7Z2W7 whole entry): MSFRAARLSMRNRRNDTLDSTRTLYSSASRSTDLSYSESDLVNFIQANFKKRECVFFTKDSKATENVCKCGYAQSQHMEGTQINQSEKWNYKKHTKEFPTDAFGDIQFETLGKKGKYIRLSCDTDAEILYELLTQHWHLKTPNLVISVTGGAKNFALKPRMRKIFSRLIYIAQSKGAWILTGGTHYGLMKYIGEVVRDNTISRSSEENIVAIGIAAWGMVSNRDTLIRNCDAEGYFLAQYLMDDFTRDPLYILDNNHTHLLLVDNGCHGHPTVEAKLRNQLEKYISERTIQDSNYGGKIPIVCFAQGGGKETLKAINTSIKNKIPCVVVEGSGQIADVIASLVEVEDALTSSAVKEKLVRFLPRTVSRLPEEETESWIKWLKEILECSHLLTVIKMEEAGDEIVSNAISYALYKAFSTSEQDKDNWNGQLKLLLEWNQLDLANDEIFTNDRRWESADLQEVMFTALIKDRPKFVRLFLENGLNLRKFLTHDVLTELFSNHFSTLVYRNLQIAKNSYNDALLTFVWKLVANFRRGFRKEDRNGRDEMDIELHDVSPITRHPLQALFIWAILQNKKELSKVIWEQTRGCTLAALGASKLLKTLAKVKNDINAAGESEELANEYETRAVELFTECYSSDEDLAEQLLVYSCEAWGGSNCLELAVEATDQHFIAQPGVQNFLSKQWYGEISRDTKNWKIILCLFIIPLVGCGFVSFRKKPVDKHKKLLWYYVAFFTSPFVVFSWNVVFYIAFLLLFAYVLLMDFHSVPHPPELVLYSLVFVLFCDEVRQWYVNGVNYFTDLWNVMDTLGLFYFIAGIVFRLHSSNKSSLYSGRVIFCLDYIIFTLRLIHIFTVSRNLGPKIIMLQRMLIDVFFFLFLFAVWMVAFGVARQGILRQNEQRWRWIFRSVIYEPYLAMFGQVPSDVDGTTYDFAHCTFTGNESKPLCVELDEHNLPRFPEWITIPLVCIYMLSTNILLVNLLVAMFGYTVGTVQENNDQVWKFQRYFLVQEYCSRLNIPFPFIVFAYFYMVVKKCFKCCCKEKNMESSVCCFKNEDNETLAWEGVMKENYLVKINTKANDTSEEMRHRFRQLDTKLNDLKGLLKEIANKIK
row,IC50 [µM],SMILES
1,0.125,"COc1cccc(C(=O)N[C@@H](c2ccc(C(F)(F)F)cc2)c2ncccc2C(F)(F)F)n1 [Example 33, (S)-6-methoxy-N-((4-(trifluoromethyl)phenyl)(3-(trifluoromethyl)pyridin-2-yl)methyl)picolinamide]"
2,0.0201,"O=C(N[C@@H](c1ccc(C(F)(F)F)cc1)c1ncccc1F)c1ccc(=O)n(C(F)F)c1 [Example 396, (S)-1-(difluoromethyl)-N-((3-fluoropyridin-2-yl)(4-(trifluoromethyl)phenyl)methyl)-6-oxo-1,6-dihydropyridine-3-carboxamide]"
3,0.017,"O=C(N[C@@H](c1ccc(OC(F)(F)F)cc1)c1ncccc1F)c1ccc2cccnc2c1 [Example 2, (S)-N-((3-fluoropyridin-2-yl)(4-(trifluoromethoxy)phenyl)methyl)quinoline-7-carboxamide]"
4,0.23,"O=C(Cc1ccccc1)N[C@@H](c1ccc(C(F)(F)F)cc1)c1ncccc1C(F)(F)F [Example 218, (S)-2-phenyl-N-((4-(trifluoromethyl)phenyl)(3-(trifluoromethyl)pyridin-2-yl)methyl)acetamide]"
5,0.0635,"O=C(N[C@@H](c1ccc(C(F)(F)F)cc1)c1ncccc1C(F)(F)F)c1c[nH]c2ncncc12 [Example 45, (S)-N-((4-(trifluoromethyl)phenyl)(3-(trifluoromethyl)pyridin-2-yl)methyl)-7H-pyrrolo[2,3-d]pyrimidine-5-carboxamide]"
6,0.04,"O=C(N[C@@H](c1ccc(C(F)(F)F)cc1)c1ncccc1C(F)(F)F)c1ccc2cc[nH]c2n1 [Example 67, (S)-N-((4-(trifluoromethyl)phenyl)(3-(trifluoromethyl)pyridin-2-yl)methyl)-1H-pyrrolo[2,3-b]pyridine-6-carboxamide]"
7,0.0639,"O=C(N[C@@H](c1ccc(C(F)(F)F)cc1)c1ncccc1C(F)(F)F)c1ccc2nccc(O)c2c1 [Example 109, (S)-4-hydroxy-N-((4-(trifluoromethyl)phenyl)(3-(trifluoromethyl)pyridin-2-yl)methyl)quinoline-6-carboxamide 2,2,2-trifluoroacetate]"
8,0.0196,"COc1ccc(C(=O)NC(c2ccc(C(F)(F)F)cc2)c2ncccc2F)cn1 (centres unmarked) [Example 35, N-((3-fluoropyridin-2-yl)(4-(trifluoromethyl)phenyl)methyl)-6-methoxynicotinamide]"
9,0.0148,"O=C(N[C@@H](c1ccc(C(F)(F)F)cc1)c1ncccc1F)c1ccc2[nH]c(=O)oc2c1 [Example 78, (S)-N-((3-fluoropyridin-2-yl)(4-(trifluoromethyl)phenyl)methyl)-2-oxo-2,3-dihydrobenzo[d]oxazole-6-carboxamide]"
10,0.0354,"Cn1cnc2cc(C(=O)N[C@@H](c3ccc(C(F)(F)F)cc3)c3ncccc3F)ccc21 [Example 394, (S)-N-((3-fluoropyridin-2-yl)(4-(trifluoromethyl)phenyl)methyl)-1-methyl-1H-benzo[d]imidazole-5-carboxamide]"
11,0.0252,"O=C(N[C@@H](c1ccc(C(F)(F)F)cc1)c1ncccc1C(F)(F)F)c1ccn2nnnc2c1 [Example 312, (S)-N-((4-(trifluoromethyl)phenyl)(3-(trifluoromethyl)pyridin-2-yl)methyl)tetrazolo[1,5-a]pyridine-7-carboxamide]"
12,0.0311,"O=C(N[C@@H](c1ccc(C(F)(F)F)cc1)c1ncccc1F)c1ccc2nccc(Cl)c2c1 [Example 113, (S)-4-chloro-N-((3-fluoropyridin-2-yl)(4-(trifluoromethyl)phenyl)methyl)quinoline-6-carboxamide 2,2,2-trifluoroacetate]"
13,0.0774,"O=C(N[C@@H](c1ccc(C(F)(F)F)cc1)c1ncccc1C(F)(F)F)c1ccc2c(c1)C(=O)CC2 [Example 245, (S)-3-oxo-N-((4-(trifluoromethyl)phenyl)(3-(trifluoromethyl)pyridin-2-yl)methyl)-2,3-dihydro-1H-indene-5-carboxamide]"
14,0.0397,"O=C(N[C@@H](c1ccc(C(F)(F)F)cc1)c1ncccc1C(F)(F)F)c1ccccn1 [Example 228, (S)-N-((4-(trifluoromethyl)phenyl)(3-(trifluoromethyl)pyridin-2-yl)methyl)picolinamide]"
15,0.0594,"O=C(N[C@@H](c1ccc(C(F)(F)F)cc1)c1ncccc1F)c1ccc2c(Cl)ccnc2c1 [Example 120, (S)-4-chloro-N-((3-fluoropyridin-2-yl)(4-(trifluoromethyl)phenyl)methyl)quinoline-7-carboxamide 2,2,2-trifluoroacetate]"
16,0.0159,"CC1(C)C[C@H]1c1cccnc1[C@@H](NC(=O)c1ccc2cccnc2c1)c1ccc(C(F)(F)F)cc1 [Example 232, N-((S)-(3-((R)-2,2-dimethylcyclopropyl)pyridin-2-yl)(4-(trifluoromethyl)phenyl)methyl)quinoline-7-carboxamide]"
17,0.0784,"Cc1ncncc1C(=O)N[C@@H](c1ccc(C(F)(F)F)cc1)c1ncccc1C(F)(F)F [Example 60, (S)-4-methyl-N-((4-(trifluoromethyl)phenyl)(3-(trifluoromethyl)pyridin-2-yl)methyl)pyrimidine-5-carboxamide]"

# Continued, molecule first:
row,SMILES,IC50 [µM]
1,"O=C(N[C@@H](c1ccc(C(F)(F)F)cc1)c1ncccc1C(F)(F)F)[C@H]1CC[C@@H](CO)CC1 [Example 241, (1s,4R)-4-(hydroxymethyl)-N-((S)-(4-(trifluoromethyl)phenyl)(3-(trifluoromethyl)pyridin-2-yl)methyl)cyclohexanecarboxamide]",0.59
2,"Cc1cc(C(=O)N[C@@H](c2ccc(OC(F)(F)F)c(F)c2)c2ncccc2F)c[nH]c1=O [Example 403, (S)-N-((3-fluoro-4-(trifluoromethoxy)phenyl)(3-fluoropyridin-2-yl)methyl)-5-methyl-6-oxo-1,6-dihydropyridine-3-carboxamide]",0.0178
3,"COc1ccnc(C(NC(=O)c2ccc(=O)[nH]c2)c2ccc(OC(F)(F)F)c(F)c2)c1 (centres unmarked) [Example 422, N-((3-fluoro-4-(trifluoromethoxy)phenyl)(4-methoxypyridin-2-yl)methyl)-6-oxo-1,6-dihydropyridine-3-carboxamide]",0.841
4,"O=C(N[C@@H](c1ccc(OC(F)(F)F)c(F)c1)c1ncccc1F)c1ccc(=O)n(C[C@@H](O)C(F)(F)F)c1 [Example 409, N-((S)-(3-fluoro-4-(trifluoromethoxy)phenyl)(3-fluoropyridin-2-yl)methyl)-6-oxo-1-((R)-3,3,3-trifluoro-2-hydroxypropyl)-1,6-dihydropyridine-3-carboxamide]",0.0892
5,"O=C(N[C@@H](c1ccc(OC(F)(F)F)c(F)c1)c1ncccc1F)c1ccc[nH]c1=O [Example 416, (S)-N-((3-fluoro-4-(trifluoromethoxy)phenyl)(3-fluoropyridin-2-yl)methyl)-2-oxo-1,2-dihydropyridine-3-carboxamide]",0.054
6,"CC(C)Cc1cc(C(=O)N[C@@H](c2ccc(C(F)(F)F)c(F)c2)c2ncccc2C(F)(F)F)c2ccccc2n1 [Example 156, (S)-N-((3-fluoro-4-(trifluoromethyl)phenyl)(3-(trifluoromethyl)pyridin-2-yl)methyl)-2-isobutylquinoline-4-carboxamide bis (2,2,2-trifluoroacetate)]",0.301
7,"Cc1cccnc1[C@@H](NC(=O)c1ccc(=O)[nH]c1)c1ccc(C(F)(F)F)cc1 [Example 82, (S)-N-((3-methylpyridin-2-yl)(4-(trifluoromethyl)phenyl)methyl)-6-oxo-1,6-dihydropyridine-3-carboxamide 2,2,2-trifluoroacetate]",0.0177
8,"Cc1cc([C@H](NC(=O)c2ccc(=O)n(C)c2)c2ncccc2F)ccc1F [Example 339, (S)-N-((4-fluoro-3-methylphenyl)(3-fluoropyridin-2-yl)methyl)-1-methyl-6-oxo-1,6-dihydropyridine-3-carboxamide]",0.915
9,"COc1ccc([C@H](NC(=O)c2ccc(=O)n(C)c2)c2ncccc2F)cc1F [Example 337, (S)-N-((3-fluoro-4-methoxyphenyl)(3-fluoropyridin-2-yl)methyl)-1-methyl-6-oxo-1,6-dihydropyridine-3-carboxamide]",0.313
10,"Cc1c[nH]c(C(=O)N[C@@H](c2ccc(OC(F)(F)F)c(F)c2)c2ncccc2F)n1 [Example 388, (S)-N-((3-fluoro-4-(trifluoromethoxy)phenyl)(3-fluoropyridin-2-yl)methyl)-4-methyl-1H-imidazole-2-carboxamide 2,2,2-trifluoroacetate]",2.98
11,"O=C(N[C@@H](c1ccc(OC(F)(F)F)c(F)c1)c1ncccc1F)c1c[nH]c(=O)c(F)c1 [Example 400, (S)-5-fluoro-N-((3-fluoro-4-(trifluoromethoxy)phenyl)(3-fluoropyridin-2-yl)methyl)-6-oxo-1,6-dihydropyridine-3-carboxamide]",0.0069
12,"O=C(N[C@@H](c1ccc(C(F)(F)F)cc1)c1ncccc1F)c1ccn2nnnc2c1 [Example 308, (S)-N-((3-fluoropyridin-2-yl)(4-(trifluoromethyl)phenyl)methyl)tetrazolo[1,5-a]pyridine-7-carboxamide]",0.0269
13,"Cn1ccnc1C(=O)N[C@@H](c1ccc(OC(F)(F)F)c(F)c1)c1ncccc1F [Example 387, (S)-N-((3-fluoro-4-(trifluoromethoxy)phenyl)(3-fluoropyridin-2-yl)methyl)-1-methyl-1H-imidazole-2-carboxamide 2,2,2-trifluoroacetate]",0.279
14,"O=C1CCCC(C(=O)N[C@@H](c2ccc(C(F)(F)F)cc2)c2ncccc2C(F)(F)F)C1 (stereo partly drawn) [Example 223, 3-oxo-N-((S)-(4-(trifluoromethyl)phenyl)(3-(trifluoromethyl)pyridin-2-yl)methyl)cyclohexanecarboxamide]",0.599
15,O=C1COc2cc(C(=O)N[C@@H](c3ccc(OC(F)(F)F)cc3)c3ncccc3F)ccc2N1 [Example 81],0.0248
